One series concerns diabetic mice. Briefly: Diastolic dysfunction (E/e′ ratio by echocardiography) in high fat diet diabetic mice. In kind it is in vivo. The following applies: diabetic mice (high fat diet 16 weeks), 1 mg/kg/day for 2 weeks. On the procedure:
(§1) To test compound activity against mitochondrial oxidative stress and diastolic dysfunction Mice were fed a high fat diet for 16 weeks starting at 6 weeks of age. Before treatment, fasting blood glucose (Gluc) and body weight were measured. Gluc was used to screen for diabetes mellitus (DM). Echocardiography was used to identify DD by measuring the E/e′ ratio. Treatment of compounds 58 and 94 was 1 mg/kg/day for 2 weeks. Then, E/e′ was reassessed.

Series [1] in a line: Body weight and serum glucose of treated diabetic mice. It is filed as in vivo. The following applies: 1 mg/kg/day for 2 weeks, versus before treatment. On the procedure: as §1
Series [2] deals with mitochondrial reactive oxygen species (mitoROS). Kind of series: ROS-Glo Assay of superoxide dismutase activity on menadione-induced mitoROS. It is filed as cell-based. Conditions: for half maximal effective concentration (EC50) for mitoROS suppression: FIG. 6, compared with mitoTEMPO. From the text: To test compounds for mitochondrial antioxidant behavior, the ROS-Glo Assay to assess superoxide dismutase activity of induced mitochondrial reactive oxygen species (mitoROS). In this assay, menadione is used to induce mitoROS production, and then a […] is used to measure the resultant hydrogen peroxide levels. A higher level of hydrogen peroxide means more dismutase activity.

The test system of the next series is mice with HFpEF. The following applies: mice with HFpEF (Jeong et al. J Am Heart Assoc. 2016); cited from earlier work.
Series [3] deals with mitoROS in diabetic (DM) mice. Briefly: mitoROS in diabetic (DM) mice measured by mitoSOX Red fluorescence. In kind it is in vivo. Conditions: FIG. 9. On the procedure:
as §1

Each structure is given as a SMILES string.

We go through six compounds from US12473313B2, “Therapeutic compounds and methods of use thereof” (Regents of the University of Minnesota, priority 2020, dated 2025).

In the case of `CC1(C)CC(NC(=O)C[P+](c2ccc(F)cc2)(c2ccc(F)cc2)c2ccc(F)cc2)CC(C)(C)N1[O].[Cl-]` [compound 94, 2,2,6,6-Tetramethyl-4-[[2-(tri-4-fluorophenylphosphonio)-acetyl]amino]-1-piperidinyloxy Chloride], the “diastolic dysfunction as measured by E/e′ ratio” value with diabetic mice is listed as “Diastolic dysfunction is treated”. Further, in series [1], the body weight entry was “did not affect”.
As to `CC1(C)CC(NC(=O)CCCCC[P+](c2ccc(F)cc2)(c2ccc(F)cc2)c2ccc(F)cc2)CC(C)(C)N1[O].[Br-]` [compound 86, 2,2,6,6-Tetramethyl-4-[[6-(tri-4-fluorophenylphosphonio)-hexanoyl]amino]-1-piperidinyloxy Bromide], the “half maximal effective concentration (EC50) for mitoROS suppression” value in series [2] is “lower EC50s for mitoROS suppression than did mitoTEMPO”.
On the same count and under the same terms, as for `COc1ccc([P@TB15+](CC(=O)NC2CC(C)(C)N([O])C(C)(C)C2)(c2ccc(OC)cc2)c2ccc(OC)cc2)cc1` [compound 2, 2,2,6,6-Tetramethyl-4-[[2-(tri-4-methoxyphenyl-phosphonio)acetyl]amino]-1-piperidinyloxy Chloride], the entry is “lower EC50s for mitoROS suppression than did mitoTEMPO”; as for `COc1cc(OC)c([P+](CC(=O)NC2CC(C)(C)N([O])C(C)(C)C2)(c2c(OC)cc(OC)cc2OC)c2c(OC)cc(OC)cc2OC)c(OC)c1.[Cl-]` [compound 88, 2,2,6,6-Tetramethyl-4-[[2-(tri-2,4,6-trimethoxyphenyl(2-phosphonia))acetyl]amino]-1-piperidinyloxy Chloride], “lower EC50s for mitoROS suppression than did mitoTEMPO”.
As for `CC1(C)CC(NC(=O)C[P+](c2ccccc2)(c2ccccc2)c2ccccc2)CC(C)(C)N1[O]` [mitoTEMPO], in the series with mice with HFpEF, the diastolic function result is on record as “improve diastolic function”.
Consider `COc1ccc([P+](CCC(=O)NC2CC(C)(C)N(O)C(C)(C)C2)(c2ccc(OC)cc2)c2ccc(OC)cc2)cc1.[Br-]` [compound 58, 2,2,6,6-Tetramethyl-4-[[3-(tri-4-methoxyphenylphosphonio)-propionyl]amino]-1-piperidinyloxy Bromide], for which the “half maximal inhibitory concentration (IC50)” value in series [2] (ROS-Glo assay, FIG. 5, compared with mitoTEMPO) is reported as “better than that of mitoTEMPO”. The “diastolic dysfunction as measured by E/e′ ratio” value in the series with diabetic mice was “Diastolic dysfunction is treated”. Besides, the “mitoROS as measured by mitoSOX Red fluorescence” value in series [3] is “able to reduces mitoROS”. For the same compound, the body weight entry in series [1] is “Neither serum glucose nor body weight were affected”.
